In patent publication US9540299B2, “MTOR-independent activator of TFEB for autophagy enhancement and uses thereof” (Hong Kong Baptist University, priority 2015, dated 2017):

System: MTOR pathway
Experiment: Effects on MTOR pathway: phosphorylation by western blot in N2a cells
Assay type: cell-based, mouse
Conditions: for phosphorylation of RPS6KB1/p70S6K and MTOR: 12 hours; for phosphorylation of RPS6KB1/p70S6K, MTOR and AKT: 12 h, curcumin 10 μM, analogs 1 μM
Method: N2a cells were treated with curcumin (Cur, 10 μM), A2, B3 and C1 (1 μM) for 12 h. Torin 1 (1 μM) treatment for 2 h was used as a positive control. […] FIG. 3B is a bar chart showing the expression of phosphorylated (p−) and total RPS6KB1/P70S6K, MTOR and AKT. Data are presented as the mean±SD from three independent experiments. *p<0.05 vs. the control (0.1% DMSO).
N2a cells are treated with E2, E3 and E4 (1 μM) for 12 hours. Torin 1 (1 μM) treatment for 2 hours is used as a positive control. The expression of phosphorylated (p−) and total RPS6KB1/P70S6K and MTOR are shown in Western blotting (FIG. 15A). The phosphorylation of RPS6KB1 and MTOR levels are also quantified (FIG. 15B). Data are presented as the mean±SD from three independent experiments. *p<0.05 vs. the control (0.1% DMSO).
N2a cells are treated with different concentrations of E4 (0-1 μM) and Torin 1 (1 μM) for 6 hours. The expression of phosphorylated (p−) and MTOR are detected by Western blotting (FIG. 23A). The phosphorylation of MTOR levels are also quantified (FIG. 23B). Data are presented as the mean±SD from three independent experiments. *p<0.05 vs. the control (0.1% DMSO).
N2a cells are treated with E4 (1 μM) for indicated times and Torin 1 (1 μM) for 6 hours. The expression of phosphorylated (p−) and total RPS6KB1/P70S6K and MTOR are detected by Western blotting (FIG. 24A). The phosphorylation of RPS6KB1 and MTOR levels are also quantified (FIG. 24B). Data are presented as the mean±SD from three independent experiments. *p<0.05 vs. the control (0.1% DMSO).
N2a, Hela and Hela cells stably expressing 3×-Flag-TFEB are cultured in DMEM supplemented with 10% FBS. SH-SY5Y cells are cultured in DMEM/F12 supplemented with 10% FBS. For drug treatment, the full medium is replaced by fresh Opti-MEM I and then the compounds (in 0.1% DMSO) are added to the cells and incubated for 12 h. Inducible PC12 cells overexpressing SNCA (WT and A53T) (a kind gift from Prof. David C. Rubinsztein at Cambridge University) are grown in DMEM supplemented with 10% horse serum, 5% FBS, 50 μg/ml G418, and 150 μg/ml hygromycin B at 37° C., 10% CO2. Cells are treated with 2 μg/ml doxycycline (Dox) for 24 h to induce SNCA expression. The full medium is changed to Opti-MEM I containing the testing compounds for another 48 h.
Cells are lysed on ice in 1× Lysis Buffer (9803, Life Technologies) with complete protease inhibitor mixture (04693124001, Roche Applied Science). Animal tissues are homogenized in nine volumes of ice-cold PBS supplemented with protease inhibitors. Cytosolic and nuclear fractions are isolated using protocols similar to those described previously. Anti-Flag or TFEB antibody is added to the whole cell lysates and Dynabeads® Protein G (10003D, Life Technologies) is used for immunoprecipitation. Proteins are separated by 10-15% SDS-PAGE, transferred, and blotted with the antibodies described. The blots are then incubated with secondary antibodies or the Clean-Blot IP Detection Reagent (21230, Thermo Scientific) at room temperature for 1 h. The protein signals are detected by ECL kit (32106, Pierce) and quantified using ImageJ software.
N2a and HeLa cells are cultured in DMEM supplemented with 10% FBS. HeLa cells stably expressing 3×-Flag-TFEB are maintained in DMEM supplemented with 10% FBS and 500 μg/mL G418. For drug treatment, the full medium is replaced by fresh Opti-MEM I containing the compounds (in 0.1% DMSO) and incubated for the indicated time periods.
Cells are lysed on ice in 1× Lysis Buffer (9803, Life Technologies) with complete protease inhibitor mixture (04693124001, Roche Applied Science) and phosphatase inhibitor (B15001, Biotool). Cytosolic and nuclear fractions are isolated using protocols similar to those described previously. Proteins are separated by 10-15% SDS-PAGE, transferred, and blotted with the antibodies described. The blots are then incubated with primary and secondary antibodies. […]

Compound	phosphorylation of RPS6KB1/p70S6K and MTOR (1 μM)	phosphorylation of RPS6KB1/p70S6K, MTOR and AKT	also measured
O=C(/C=C/c1ccccc1I)/C=C/c1ccccc1I [E4]	significantly inhibit	–	phosphorylation of MTOR, dose-dependent (0-1 μM, 6 hours, dose-dependent manner): significantly inhibits; phosphorylation of both MTOR and p70S6K, time-dependent (1 μM, 0-6 hours, time-dependent manner): inhibits
O=C(/C=C/c1ccccc1Cl)/C=C/c1ccccc1Cl [E2]	significantly inhibit	–	–
O=C(/C=C/c1ccccc1Br)/C=C/c1ccccc1Br [E3]	significantly inhibit	–	–
O=C(/C=C/c1ccc(O)cc1)/C=C/c1ccc(O)cc1 [B3, 1,5-bis(4-hydroxyphenyl)penta-1,4-dien-3-one]	–	inhibit	–
O=C(/C=C/c1cccc(C(F)(F)F)c1)/C=C/c1cccc(C(F)(F)F)c1 [A2, 1,5-bis(3-(trifluoromethyl)phenyl)penta-1,4-dien-3-one]	–	inhibit	–
COc1cc(/C=C/C(=O)CC(=O)/C=C/c2ccc(O)c(OC)c2)ccc1O [curcumin, Curcumin, reference compound]	–	inhibit	–
COc1ccccc1/C=C/C(=O)/C=C/c1ccccc1OC [C1, 1,5-bis(2-methoxyphenyl)penta-1,4-dien-3-one]	–	significantly promotes	–
